In patent US20230302022A1, “PREVENTING OR MITIGATING CHEMOTHERAPY INDUCED ALOPECIA USING VITAMIN D” (priority 2016, published 2023):

Tests used:
[1] = system: NIH-3T3 (immortalized fibroblast); assay: Cell growth / viability assay, NIH-3T3; format: cell-based
Experimental: The drug treatment period was usually three days. At the end of the three days, the background OD of the 96-well plate was read at 280 nm, before 20 μL of the “Substrate Cell Titer 96 Aqueous One Solution Reagent” (Promega) was added to each well. […] The net OD increase was calculated by subtracting the pre-substrate OD reading. The impact of the drug on the cells was calculated by comparing the OD at different concentrations in relation to the OD of the control wells (without the drug). The results of the Net OD as a function of drug concentration was plotted and used to determine ED50 values.

HepG2 (liver cancer) = assay: Cell growth / viability assay, HepG2; format: cell-based
Experimental: The drug treatment period was usually three days. At the end of the three days, the background OD of the 96-well plate was read at 280 nm, before 20 μL of the “Substrate Cell Titer 96 Aqueous One Solution Reagent” (Promega) was added to each well. The plate was returned to the 37° C. incubator, and its OD at 490 nm was read each hour until an OD of approximately 1.5 was reached. The net OD increase was calculated by subtracting the pre-substrate OD reading.
The impact of the drug on the cells was calculated by comparing the OD at different concentrations in relation to the OD of the control wells (without the drug).
Then these pretreated cells were utilized to set up the cell based assay.

C3H/HeJ mouse = assay: C3H/HeJ model of alopecia areata; format: in vivo; details: 0.2 μg for 15 days, observed 30 days
Excerpt: Neonatal Rat model and PCA model. Sprague Dawley rats were purchased from Charles River Laboratories (Wilmington, MA). C3H/HeJ mouse were purchased from Jackson Laboratories (Bar Harbour, ME). Rodents were housed and fed according to NIH guidelines. […] Uskokovic (Hoffman-La Roche, Nutley, NJ). For experiments involving C3H/HeJ mice, 1,25(OH)2D3 was purchased from Sigma (St. Louis, M0). C3H/HeJ Model of Abpecia Areata. Retired breeders (8 months of age) were observed daily for the development of AA lesions.

guinea pigs = assay: Skin sensitization study in guinea pigs; format: in vivo, guinea pig; details: 5.7 μg/g
Experimental: Induction phase. […] The induction exposure was repeated at the same skin site once a week for 2 weeks. The vehicle and positive control groups composed of 5 male and 5 female guinea pigs, each of which were exposed in the same manner as the treatment group to propylene glycol/anhydrous ethanol or hexylcinnamic aldehyde (a known mild to moderate skin-sensitizer), respectively. Skin reactions were scored and recorded at approximately 24 hours after patch removal during the induction phase. After the last induction exposure, the animals remained untreated for two weeks before the challenge exposure.
Challenge phase. The challenge exposure was conducted two weeks after the final topical induction. The test article was topically applied to the Vehicle Control and Test Group at the concentration determined to be non-irritating in the irritation screen. The Vehicle Control Group was also challenged with the Vehicle. The Positive Control Groups received the positive control article. The challenge application sites were scored at approximately 24 and 48 hours after patch removal.

patients = assay: Phase I study: chemotherapy-induced alopecia in patients; format: in vivo, human; details: patients at all dose levels, weeks 7 and 15 vs baseline
Excerpt: Photographic assessment will be performed using a Canon Power Shot G12 camera system to ensure standardization and uniformity among all enrolled patients. The following five views will be obtained at each photographic assessment: bilateral sides of head/scalp view, front of head/face view, back of head/scalp view, and top of head/scalp view. Additionally, close-up photographs will be taken at the same times points. […] Photographs will be standardized for lighting, camera angle, and position to the participants head. These assessments will be performed at the following time points: at baseline, weeks 7, 15, 27, and 54. Photographs for patients in each cohort representing baseline, and treatment weeks 7 and 15 will be presented blind to the study principle investigator after at least 3 patients have completed 15 weeks of treatment. Photographs will also be taken at week 27 and week 54 of the study but will be included in the final photographic assessment as secondary information. […]
Subjective record of hair and scalp. Alopecia will also be subjectively recorded through the patient self-reported diaries. […]
Each patient underwent PK analysis, adverse event monitoring, patient self-assessment diaries (1-10 scale), and blinded photographic assessments. […] Toxicity was determined on a weekly basis during Cycle 1 (i.e., the first 28 days of topical agent application) and subsequently every four weeks. […]

Chemical stability = format: physicochemical
C57BL/6 mice = details: cited from earlier work

With C=C1/C(=C\C=C2/CCC[C@]3(C)[C@@H]([C@H](C)CCCC(C)(C)O)CC[C@@H]23)C[C@@H](O)C[C@@H]1O [Calcitriol, (5Z,7E)-9,10-secocholesta-5,7.10(19Hriene-1 a,33.25-triol] the “effect of calcitriol on cell growth” value [1] was “no significant growth promoting or growth inhibiting effects”, the “effect of calcitriol on the cytotoxic effect of Doxorubicin” value [1] was “did not appear to appreciably alter” and the “effect of calcitriol on the cytotoxic effect of Doxorubicin” value (HepG2 (liver cancer); Hep-G2) was “did not appear to appreciably alter”. The “5-FU ED50 curve with vs without calcitriol” value (HepG2 (liver cancer); Hep-G2, 0.1 μg/mL calcitriol) was “not significantly different”, the “response to doxorubicin, cisplatin and erlotinib after calcitriol exposure” value (HepG2 (liver cancer); Hep-G2, 0.1 μg/mL calcitriol for two passages) was “did not alter” and the “regrowth of hair in alopecic lesions” value (C3H/HeJ mouse) was “No regrowth of hair”. For the same molecule, the skin sensitization (guinea pigs) was “not determined to be a sensitizer”, the chemotherapy induced alopecia (patients) was “diminished chemotherapy induced alopecia” and the “Chemical Stability” value (Chemical stability) was “Stable at room temperature”. The “follicular apoptosis induced by cyclophosphamide” value (C57BL/6 mice; C57BL/6 mice, topical) was “significantly diminish the degree of follicular apoptosis”, the “prevention of cyclophosphamide-induced alopecia” value (C57BL/6 mice; female C57BL/6 adolescent mice) was “failed to demonstrate efficacy” and the “regrowth of pigmented hair shafts” value (C57BL/6 mice; female C57BL/6 adolescent mice) was “significantly accelerated, enhanced, and quantitatively improved”.
